Molecular target: human Nav1.8 (Homo sapiens (Human), UniProt Q9Y5Y9)
Experiment: Nav1.8 Qube automated patch-clamp assay
Assay type: cell-based
Conditions: Nav1.8 Qube Assay; human Nav1.8 channels stably expressed in HEK 293 cells
Protocol: Qube® Assay Experimental Procedure
Compounds were tested on human Nav1.8 and Nav1.5 channels stably expressed in human embryo kidney (HEK) 293 cells. Sodium current measurements on Qube® were conducted as follows: automated 384-well patch-clamp assays on the Qube® platform (Sophion Biosciences) were used to measure the inhibition of sodium flow through human Nav1.8 and Nav1.5 channels. Whole-cell voltage-clamp recordings were performed in QChips® (Sophion Biosciences) at room temperature. Nav1.8 current measurements on Qube® were obtained as follows: Nav1.8 currents were elicited with a 10 second 1 Hertz (Hz) pulse train from a holding potential of −90 millivolts (mV), delivered to the cells once per minute in the control condition (DMSO only) and after compound addition. The 1 hertz pulse train stimulation consisted of ten test pulses to 10 millivolt (mV) for 20 milliseconds (ms), each of which was followed by a 980 millisecond repolarization to −67 millivolts. At the end of the 10 second pulse train stimulation, a 5 second hyperpolarization step to −100 millivolt (mV) was used to recover Nav1.8 from fast inactivation. The peak currents elicited by the 1st and 10th test pulses were used to determine IC50 values for resting inhibition and inactivated state inhibition. Nav1.5 current measurements on Qube® were obtained as follows: Nav1.5 currents were elicited with a 20 second 3 Hertz pulse train in the control condition (DMSO only) and after compound addition. The pulse train consisted of sixty 20 millisecond test pulses to 0 millivolt from a holding potential of −80 millivolt (mV). The average peak currents elicited by the last 3 test pulses were used to determine IC50 values for Nav1.5 inhibition.
The following buffers were used for the Qube® recordings: External buffer for Nav1.8 Qube® recording: 150 NaCl, 2 CaCl2, 5 KCl, 1 Mg Cl2, 10 HEPES, 12 Dextrose; External buffer for Qube® Nav1.5 recording: 120 N-Methyl-D-Glucamine, 40 NaCl, 1 KCl, 2.7 CaCl2, 5 HEPES, 0.5 MgCl2; and Internal buffer for Qube® recording: 120 CsF, 30 CsCl, 10 EGTA, 5 HEPES, 5 NaF, 2 MgCl2.
For all Qube® experiments offline analysis was used to determine percent inhibition as a function of drug concentration. IC50 values were determined by fitting to the Hill equation.

Sequence of human Nav1.8 (Q9Y5Y9 whole entry): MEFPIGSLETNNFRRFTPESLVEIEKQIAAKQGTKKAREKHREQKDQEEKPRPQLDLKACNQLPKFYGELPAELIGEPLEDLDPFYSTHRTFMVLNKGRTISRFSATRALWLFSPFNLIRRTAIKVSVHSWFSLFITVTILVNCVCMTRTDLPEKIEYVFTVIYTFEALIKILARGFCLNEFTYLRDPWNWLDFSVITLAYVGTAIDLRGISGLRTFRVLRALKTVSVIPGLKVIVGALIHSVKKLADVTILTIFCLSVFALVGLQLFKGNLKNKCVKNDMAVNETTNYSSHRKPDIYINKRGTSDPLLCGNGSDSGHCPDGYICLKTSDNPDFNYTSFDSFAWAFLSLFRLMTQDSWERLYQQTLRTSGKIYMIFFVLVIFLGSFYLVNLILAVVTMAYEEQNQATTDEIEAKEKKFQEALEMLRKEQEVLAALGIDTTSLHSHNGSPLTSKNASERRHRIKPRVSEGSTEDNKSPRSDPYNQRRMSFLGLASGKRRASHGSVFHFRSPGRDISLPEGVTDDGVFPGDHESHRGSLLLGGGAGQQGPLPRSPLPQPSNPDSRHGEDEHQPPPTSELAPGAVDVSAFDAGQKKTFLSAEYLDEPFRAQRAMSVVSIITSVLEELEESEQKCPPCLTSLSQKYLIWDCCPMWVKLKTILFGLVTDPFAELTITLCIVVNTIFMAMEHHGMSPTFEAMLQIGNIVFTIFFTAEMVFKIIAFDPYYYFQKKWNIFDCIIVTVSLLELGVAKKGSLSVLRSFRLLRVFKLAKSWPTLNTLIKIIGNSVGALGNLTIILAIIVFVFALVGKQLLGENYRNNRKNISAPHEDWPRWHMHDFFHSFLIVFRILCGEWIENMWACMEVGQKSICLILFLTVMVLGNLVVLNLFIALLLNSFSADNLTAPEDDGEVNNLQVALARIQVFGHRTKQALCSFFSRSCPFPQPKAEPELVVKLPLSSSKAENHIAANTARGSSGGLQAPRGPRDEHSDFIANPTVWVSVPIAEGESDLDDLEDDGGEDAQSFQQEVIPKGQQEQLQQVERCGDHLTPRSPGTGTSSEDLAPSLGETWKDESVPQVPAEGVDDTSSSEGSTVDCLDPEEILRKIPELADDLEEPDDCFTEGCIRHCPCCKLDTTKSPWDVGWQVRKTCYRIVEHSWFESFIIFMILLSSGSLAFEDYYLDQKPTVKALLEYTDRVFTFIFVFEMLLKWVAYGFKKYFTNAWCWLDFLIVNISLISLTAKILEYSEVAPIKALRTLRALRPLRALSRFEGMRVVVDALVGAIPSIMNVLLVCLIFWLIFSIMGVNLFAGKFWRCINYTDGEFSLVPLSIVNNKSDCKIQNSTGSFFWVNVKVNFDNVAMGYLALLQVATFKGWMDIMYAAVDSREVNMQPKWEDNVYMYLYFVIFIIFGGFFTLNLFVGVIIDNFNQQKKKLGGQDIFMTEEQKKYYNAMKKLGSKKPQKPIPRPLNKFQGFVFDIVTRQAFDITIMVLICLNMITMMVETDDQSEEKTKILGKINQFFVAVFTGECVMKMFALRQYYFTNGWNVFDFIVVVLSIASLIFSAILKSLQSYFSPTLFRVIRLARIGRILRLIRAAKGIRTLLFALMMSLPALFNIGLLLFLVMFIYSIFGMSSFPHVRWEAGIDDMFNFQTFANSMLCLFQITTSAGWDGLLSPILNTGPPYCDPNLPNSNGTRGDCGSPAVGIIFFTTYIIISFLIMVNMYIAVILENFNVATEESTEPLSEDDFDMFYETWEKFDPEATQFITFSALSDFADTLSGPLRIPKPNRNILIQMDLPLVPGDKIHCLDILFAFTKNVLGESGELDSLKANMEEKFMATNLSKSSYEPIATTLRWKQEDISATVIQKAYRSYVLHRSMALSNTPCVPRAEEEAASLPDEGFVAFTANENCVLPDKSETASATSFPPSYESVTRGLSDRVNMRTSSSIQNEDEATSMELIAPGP

| IC50 | Compound |
| --- | --- |
| 254 nM | N#Cc1cccc(NC(=O)c2cc(C(F)(F)F)cnc2N2CCCCCC2)c1 [Example 21, 2-(azepan-1-yl)-N-(3-cyanophenyl)-5-(trifluoromethyl)pyridine-3-carboxamide] |
| 470 nM | N#Cc1ccc(NC(=O)c2cc(C(F)(F)F)cnc2N2CCCCCC2)cc1 [Example 22, 2-(azepan-1-yl)-N-(4-cyanophenyl)-5-(trifluoromethyl)pyridine-3-carboxamide] |
| 112 nM | Cc1cnc(N2CCCCCC2)c(C(=O)Nc2cccc(S(N)(=O)=O)c2)c1 [Example 23, 2-(azepan-1-yl)-5-methyl-N-(3-sulfamoyl-phenyl)nicotinamide] |
| 4430 nM | O=C(Nc1cccc(S(=O)(=O)N2CCCC2)c1)c1cc(C(F)(F)F)cnc1N1CCCCCC1 [Example 24, 2-(azepan-1-yl)-N-(3-pyrrolidin-1-yl-sulfonylphenyl)-5-(trifluoromethyl)-pyridine-3-carboxamide] |
| 337 nM | NS(=O)(=O)c1ccc(O)c(NC(=O)c2cc(C(F)(F)F)cnc2N2CCCCCC2)c1 [Example 25, 2-(azepan-1-yl)-N-(2-hydroxy-5-sulfamoyl-phenyl)-5-(trifluoro-methyl)pyridine-3-carboxamide] |
| 2.1 nM | Cc1nc(N2CCCCCC2)c(C(=O)Nc2cccc(S(N)(=O)=O)c2)cc1Cl [Example 26, 2-(azepan-1-yl)-5-chloro-6-methyl-N-(3-sulfamoylphenyl)nicotinanmide] |
| 4430 nM | Cc1ccc(-c2cnc(N3CCCCC3)c(C(=O)Nc3cccc(S(N)(=O)=O)c3)c2)cc1 [Example 27, 2-(piperidin-1-yl)-N-(3-sulfamoylphenyl)-5-(p-tolyl)nicotinamide] |
| 211 nM | NS(=O)(=O)c1c(F)ccc(NC(=O)c2cc(C(F)(F)F)cnc2N2CCC(F)(F)CC2)c1F [Example 28, N-(2,4-difluoro-3-sulfamoylphenyl)-2-(4,4-difluoropiperidin-1-yl)-5-(trifluoromethyl)nicotinamide] |
| 10 nM | Cc1cc(Cl)nc(N2CCCCCC2)c1C(=O)Nc1cccc(S(N)(=O)=O)c1 [Example 29, 2-(azepan-1-yl)-6-chloro-4-methyl-N-(3-sulfamoylphenyl)nicotinamide] |
| 12 nM | Cc1cc(C(=O)Nc2cccc(S(N)(=O)=O)c2)c(N2CCCCCC2)nc1C [Example 30, 2-(azepan-1-yl)-5,6-dimethyl-N-(3-sulfamoylphenyl) pyridine-3-carboxamide] |
| 22 nM | NS(=O)(=O)c1cccc(NC(=O)c2cc(Cl)cnc2N2CCCCCC2)c1 [Example 31, 2-(azepan-1-yl)-5-chloro-N-(3-sulfamoyl-phenyl)pyridine-3-carboxamide] |
| 24 nM | NS(=O)(=O)c1cccc(NC(=O)c2cc(Br)cnc2N2CCCCCC2)c1 [Example 32, 2-(azepan-1-yl)-5-bromo-N-(3-sulfamoyl-phenyl)pyridine-3-carboxamide] |
| 44 nM | NS(=O)(=O)c1cccc(NC(=O)c2c(Br)ccnc2N2CCCCCC2)c1 [Example 33, 2-(azepan-1-yl)-4-bromo-N-(3-sulfamoyl-phenyl)pyridine-3-carboxamide] |
| 603 nM | NS(=O)(=O)c1cccc(NC(=O)c2cc(-c3cccnc3)cnc2N2CCCCCC2)c1 [Example 34, 2-(azepan-1-yl)-5-(3-pyridyl)-N-(3-sulfamoyl-phenyl)pyridine-3-carboxamide] |
| 29 nM | CS(=O)(=O)c1cccc(NC(=O)c2cc(Br)cnc2N2CCCCCC2)c1 [Example 35, 2-(azepan-1-yl)-5-bromo-N-(3-methylsulfonyl-phenyl)pyridine-3-carboxamide] |
| 31 nM | Cc1cc(C(=O)Nc2cccc(S(C)(=O)=O)c2)c(N2CCCCCC2)nc1C [Example 36, 2-(azepan-1-yl)-5,6-dimethyl-N-(3-methyl-sulfonylphenyl)pyridine-3-carboxamide] |
| 106 nM | Cc1cc(C(=O)Nc2cccc(C(N)=O)c2)c(N2CCCCCC2)nc1C [Example 37, 2-(azepan-1-yl)-N-(3-carbamoylphenyl)-5,6-dimethyl-pyridine-3-carboxamide] |
